Results from US10961228B2, “JAK1 selective inhibitors” (AstraZeneca AB, priority 2017, dated 2021).

Tests used:
[1] = target: recombinant JAK1 (amino acids 866-1154) (Homo sapiens (Human), UniProt P23458); test: Enzyme inhibition studies, JAK1 (5 mM ATP, Caliper); type: biochemical
Procedure, shortened: (§1)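 N-terminal GST-fused kinase domains from insect cells, run at 5 mM ATP with inhibitor at 30, 3, 0.3, 0.03, 0.003 and 0 μM final.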

[2] = target: recombinant JAK3 (amino acids 781-1124) (Homo sapiens (Human), UniProt P52333); test: Enzyme inhibition studies, JAK3 (5 mM ATP, Caliper); type: biochemical
Sequence of recombinant JAK3 (amino acids 781-1124) (P52333 781-1124): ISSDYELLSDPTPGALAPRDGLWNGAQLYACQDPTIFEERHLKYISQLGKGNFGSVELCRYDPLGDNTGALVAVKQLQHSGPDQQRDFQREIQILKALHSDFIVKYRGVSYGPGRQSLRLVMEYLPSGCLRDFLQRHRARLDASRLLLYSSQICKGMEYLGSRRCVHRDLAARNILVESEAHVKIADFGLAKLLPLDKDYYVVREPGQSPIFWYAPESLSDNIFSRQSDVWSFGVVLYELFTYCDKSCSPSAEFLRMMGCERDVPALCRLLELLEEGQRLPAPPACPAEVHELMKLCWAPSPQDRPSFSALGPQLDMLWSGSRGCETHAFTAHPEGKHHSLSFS
Procedure, shortened: as §1

[3] = Plasma drug concentration by LC-MSMS at termination of alopecia areata study; type: in vivo; conditions: 1-2 h after last oral dose at 12.5 mg/kg BW, C3H/HeJ mice
Procedure: Blood was sampled from behind the eye in EDTA-coated test tubes (Multivette 300, Sarstedt) and kept on ice. Plasma was obtained by centrifugation (4° C., 4000 G, 5 min) and 50 μL transferred to a 96-well NUNC plate and stored at −20° C. until analyzed with regards to drug concentration by LC-MSMS.

[4] = tested on: OVA-challenged Brown Norway rat; test: OVA lung inflammation model, eosinophils in broncho alveolar lavage; type: in vivo; conditions: for reduction of eosinophils in BAL: inhaled DPI, vs OVA/OVA group 3
Procedure: Brown Norway rats were sensitised and challenged with chicken ovary albumin (OVA) (Clinical and Experimental Allergy, 37 (2007) 973-988). After inhaling an amount of micronized compound within the scope of the present disclosure, the reduction in airway inflammation in the lung of OVA-challenged Brown Norway rat was measured as % reduction of eosinophils in broncho alveolar lavage (BAL) compared to challenged, but untreated rat using the following protocol. As the model control, an i.t. over dose (2*300 μg/kg) of the model reference compound, Budesonide, was used. 74 animals were divided into 8 experimental groups and treated as follows: • Group 1 (Saline/Saline/Air), n=6—Sham (saline) sensitisation at Day0 (S1) and Day7 (S2) and sham (saline) challenged at Day14 (P1). Treatment room air • Group 2 (OVA/Saline/Lactose), n=8—Sensitised at Day0 (S1) and Day7 (S2) with Al(OH)3/OVA mixture followed by the i.t. sham (saline) challenge at Day14 (P1). Treatment DPI Lactose. • Group 3 (OVA/OVA/Lactose), n=12—Sensitised at Day0 (S1) and Day7 (S2) with Al(OH)3/OVA mixture followed by the i.t. OVA challenge at Day14 (P1). […] Treatment i.t. with Budesonide (model reference compound) at 2×300 μg/kg Day14. Twice daily. Prior to start of first sensitisation (S1), the body weight (BW) was recorded and all rats were tail marked with the identification number. The BW was additionally recorded prior to S2 and prior to the termination point (D15). All of the animals' BAL was determined. At the time of termination, the performer(s) (investigator) were blinded to the status of the individual rats, The rats where subcutaneously (s.c.) injected with a mixture of OVA/Al(OH)3 (100 μg OVA:100 mg Alum in 1 ml saline/rat), and intraperitoneally (i.p.) injected with 0.5 ml/rat of B. Pertussis toxin (0.1 μg/ml) at Day 0 and Day 7. Sham sensitisation was performed by s.c. and i.p. injections of isotonic saline with the same volume and strategy. Each exposure system consisted of a flow-past exposure inhalation chamber, rat restraining tubes and a Modified Wright Dust Feed mechanism. Measurements of the aerosol concentration in the inhalation chamber for each dose level was performed by filter sampling at one of the inhalation ports (AP40, 47 mm, Millipore). […] Rats from Group 2 and 3 were exposed to lactose in the restraining tube (Battelle chambers). Target inhaled doses (μg/kg) were calculated assuming exposure duration of 2-10 minutes and a body weight of 250 g using the following formula: The rats were weighed the day prior to OVA challenge. At challenge the rats were anaesthetised with Isoflurane mixture (air and 4% isoflurane) put in supine position with 30-40° angle and instilled with vehicle or compound. This intra-tracheal instillation was performed by using a modified metal cannula with bolus-bulb on the end. Rats were placed in. cages in a supine position with a head up until regaining consciousness. The reference compound was administered twice daily with the second daily administration 6 hours post the first daily administration. Instillation volume: 0.25 mL/rat. Five minutes (5′) before OVA challenge, blood was collected (0.2 ml) from the tongue vein and plasma (60 ul/well) was collected on 96-deepwell plate. The provocation occurred at Day14 (P1) and was applied 2 hours after compound administration. The rats were anaesthetized with Isoflurane mixture (air and 4% isoflurane) put in supine position with 30-40° angle and instilled with the isotonic saline or OVA (0.1 mg/ml). The intra-tracheal instillation was performed. by using a modified metal cannula with bolus-bulb on the end. Rats were placed in cages in a supine position with a head up until regaining consciousness. Sham challenge was performed by i.t. instillation of isotonic saline with the same volume and strategy. Instillation volume: 0.25 ml/rat. At 22 hours post OVA challenge (P1), rats were euthanized with an intraperitoneal injection of 1 ml pentobarbital (50 mg/ml). […]

Sequence of recombinant JAK1 (amino acids 866-1154) (P23458 866-1154): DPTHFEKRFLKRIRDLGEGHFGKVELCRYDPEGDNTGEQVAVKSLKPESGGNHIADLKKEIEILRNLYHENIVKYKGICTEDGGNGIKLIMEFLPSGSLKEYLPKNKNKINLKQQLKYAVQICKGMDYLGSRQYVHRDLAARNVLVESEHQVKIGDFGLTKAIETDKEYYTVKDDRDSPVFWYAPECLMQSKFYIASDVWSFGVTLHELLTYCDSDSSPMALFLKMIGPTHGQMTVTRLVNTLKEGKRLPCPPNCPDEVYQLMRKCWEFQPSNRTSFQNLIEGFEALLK

| IC50 [1] [nM] | IC50 [2] [µM] | mean plasma exposure (total concentration) [3] [nM] | SMILES | max inhibition of eosinophils ([4]; compared to OVA control (group 3), plateau from the 0.6 μg/kg dose) [%] | reduction of eosinophils in BAL ([4]; lung dose 0.08 μg/kg, not significant) [%] | reduction of eosinophils in BAL ([4]; lung dose 0.11 μg/kg, not significant) [%] | reduction of eosinophils in BAL ([4]; lung dose 0.6 μg/kg, p<0.01) [%] | reduction of eosinophils in BAL ([4]; lung dose 4.76 μg/kg, p<0.01) [%] | inhibition of eosinophils ([4]; i.t. over dose 2*300, twice daily Day14 (Group 8)) [%] |
| --- | --- | --- | --- | --- | --- | --- | --- | --- | --- |
| < 3 | > 30 | 338 | COC[C@H](C(=O)Nc1cccc2c(-c3nc(Nc4cccc(S(C)(=O)=O)c4F)ncc3F)c[nH]c12)N1CCN(C)CC1 [Example 35, (R)-N-(3-(5-fluoro-2-(2-fluoro-3-(methylsulfonyl)phenylamino)pyrimidin-4-yl)-1H-indol-7-yl)-3-methoxy-2-(4-methylpiperazin-1-yl)propanamide] | 68 | 7 | 28 | 68 | 61 | – |
| – | – | – | CCCC1O[C@@H]2C[C@H]3[C@@H]4CCC5=CC(=O)C=C[C@]5(C)[C@H]4[C@@H](O)C[C@]3(C)[C@]2(C(=O)CO)O1 (stereo partly drawn) [Budesonide, reference compound] | – | – | – | – | – | 97 |
